In PubChem BioAssay (NCI):
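96-well plates; 48 h exposure; 5 concentrations. Endpoints by linear interpolation between flanking doses. Not reached: highest tested concentration assigned. GI50 marks 50% less growth. At the TGI there is no net growth.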

Tests used:
Assay in all cases: NCI anticancer screen, dose series, 48 h
[1] = test system: UACC-257 melanoma
[2] = test system: HCC-2998 colon
[3] = test system: RPMI-8226 leukemia
[4] = test system: U251 CNS
[5] = test system: SK-MEL-5 melanoma
[6] = test system: UO-31 renal
[7] = test system: SN12C renal
[8] = test system: MOLT-4 leukemia
[9] = test system: OVCAR-5 ovarian
[10] = test system: HOP-62 NSCLC
[11] = test system: CAKI-1 renal
[12] = test system: MCF7 breast
[13] = test system: HT29 colon
[14] = test system: MDA-MB-435
[15] = test system: MDA-MB-231 breast
[16] = test system: OVCAR-8 ovarian
[17] = test system: TK-10 renal
[18] = test system: HCT-116 colon
[19] = test system: A549 NSCLC
[20] = test system: SF-268 CNS
[21] = test system: NCI-H460 lung
[22] = test system: 786-0 renal
[23] = test system: RXF 393 renal
[24] = test system: T-47D breast
[25] = test system: MALME-3M melanoma
[26] = test system: HOP-92 NSCLC
[27] = test system: PC-3 prostate
[28] = test system: IGROV1 ovarian
[29] = test system: A498 renal
[30] = test system: SK-MEL-2 melanoma
[31] = test system: SW-620 colon
[32] = test system: ACHN renal
[33] = test system: SF-295 CNS
[34] = test system: SK-OV-3 ovarian
[35] = test system: OVCAR-4 ovarian
[36] = test system: UACC-62 melanoma
[37] = test system: SNB-75 CNS
[38] = test system: HS 578T breast
[39] = test system: NCI/ADR-RES ovarian
[40] = test system: SNB-19 CNS
[41] = test system: SF-539 CNS
[42] = test system: DU-145 prostate
[43] = test system: SK-MEL-28 melanoma
[44] = test system: NCI-H23 lung
[45] = test system: NCI-H522 lung
[46] = test system: HCT-15 colon
[47] = test system: KM12 colon
[48] = test system: COLO 205 colon
[49] = test system: BT-549 breast
[50] = test system: OVCAR-3 ovarian
[51] = test system: EKVX NSCLC
[52] = test system: NCI-H226 lung
[53] = test system: SR leukemia
[54] = test system: K-562 leukemia
[55] = test system: CCRF-CEM leukemia
[56] = test system: LOX IMVI melanoma

`COC(=O)OC1C(O[C@H]2C[C@H]3[C@@H]4CC=C5C[C@@H](O)CC[C@]5(C)[C@H]4CC[C@]3(C)[C@H]2[C@H](C)C(=O)CCC(C)C)OCC(O)C1OC1OCC(O)C(O)C1OC(=O)c1ccc(OC)cc1` (some centres not stated) was tested, and the GI50 [1] was 5.43 nM, the TGI [1] was 56.2 nM and the GI50 [2] was 1440 nM. The TGI [2] was over 27500 nM, the GI50 [3] was under 2.75 nM and the TGI [3] was 4.91 nM. For the same compound, the GI50 [4] was 2.97 nM, the TGI [4] was 3910 nM and the GI50 [5] was 14 nM. For the same compound, the TGI [5] was 279 nM, the GI50 [6] was 17 nM and the TGI [6] was 89.8 nM. It also gave a GI50 [7] of 1460 nM, a TGI [7] of over 27500 nM and a GI50 [8] of 6.95 nM. For the same compound, the TGI [8] was 17.8 nM, the GI50 [9] was 98.2 nM and the TGI [9] was 2630 nM. It also gave a GI50 [10] of 10.2 nM, a TGI [10] of 673 nM and a GI50 [11] of 19.1 nM. For the same compound, the TGI [11] was 447 nM, the GI50 [12] was 10.8 nM and the TGI [12] was 545 nM. For the same compound, the GI50 [13] was 41.5 nM, the TGI [13] was over 27500 nM and the GI50 [14] was 8.74 nM. It also gave a TGI [14] of 86.8 nM, a GI50 [15] of 82 nM and a TGI [15] of 4460 nM. For the same compound, the GI50 [16] was 3170 nM, the TGI [16] was over 27500 nM and the GI50 [17] was 496 nM. It also gave a TGI [17] of 17500 nM, a GI50 [18] of 8.86 nM and a TGI [18] of over 27500 nM. It also gave a GI50 [19] of 12.5 nM, a TGI [19] of 5240 nM and a GI50 [20] of 13.7 nM. The TGI [20] was 2240 nM, the GI50 [21] was 9.57 nM and the TGI [21] was 332 nM. It also gave a GI50 [22] of under 2.75 nM, a TGI [22] of 503 nM and a GI50 [23] of under 2.75 nM. It also gave a TGI [23] of 9.48 nM, a GI50 [24] of 20.9 nM and a TGI [24] of 647 nM. It also gave a GI50 [25] of 18.4 nM, a TGI [25] of 769 nM and a GI50 [26] of 49.2 nM. It also gave a TGI [26] of 1870 nM, a GI50 [27] of 4.36 nM and a TGI [27] of 290 nM. The GI50 [28] was 10.6 nM, the TGI [28] was over 27500 nM and the GI50 [29] was under 2.75 nM. The TGI [29] was 10.8 nM, the GI50 [30] was 5.38 nM and the TGI [30] was 85.5 nM. The GI50 [31] was 8.77 nM, the TGI [31] was 277 nM and the GI50 [32] was 72.1 nM. For the same compound, the TGI [32] was over 27500 nM, the GI50 [33] was under 2.75 nM and the TGI [33] was under 2.75 nM. The GI50 [34] was 7.3 nM, the TGI [34] was 611 nM and the GI50 [35] was 82.3 nM. The TGI [35] was over 27500 nM, the GI50 [36] was 6.21 nM and the TGI [36] was 15.8 nM. For the same compound, the GI50 [37] was under 2.75 nM, the TGI [37] was 3770 nM and the GI50 [38] was under 2.75 nM. It also gave a TGI [38] of 41.6 nM, a GI50 [39] of over 27500 nM and a TGI [39] of over 27500 nM. For the same compound, the GI50 [40] was 15.5 nM, the TGI [40] was 2240 nM and the GI50 [41] was under 2.75 nM. For the same compound, the TGI [41] was 9.1 nM, the GI50 [42] was 12.7 nM and the TGI [42] was 5180 nM. The GI50 [43] was 4.3 nM, the TGI [43] was 16.1 nM and the GI50 [44] was 138 nM. The TGI [44] was 5940 nM, the GI50 [45] was 14.6 nM and the TGI [45] was 183 nM. For the same compound, the GI50 [46] was 137 nM, the TGI [46] was 1260 nM and the GI50 [47] was 39 nM. For the same compound, the TGI [47] was 9860 nM, the GI50 [48] was 34 nM and the TGI [48] was 253 nM. It also gave a GI50 [49] of under 2.75 nM, a TGI [49] of 3450 nM and a GI50 [50] of 345 nM. The TGI [50] was 16800 nM, the GI50 [51] was 19.6 nM and the TGI [51] was 2550 nM.
`CSC1=Nc2c(c(C)c(C)n2COC(CO)CO)C2=NC(=O)CN12` gave a GI50 [1] of over 100000 nM, a TGI [1] of over 100000 nM and a GI50 [2] of over 100000 nM. The TGI [2] was over 100000 nM, the GI50 [3] was over 100000 nM and the TGI [3] was over 100000 nM. The GI50 [4] was over 100000 nM, the TGI [4] was over 100000 nM and the GI50 [5] was over 100000 nM. For the same compound, the TGI [5] was over 100000 nM, the GI50 [6] was over 100000 nM and the TGI [6] was over 100000 nM. It also gave a GI50 [7] of over 100000 nM, a TGI [7] of over 100000 nM and a GI50 [8] of over 100000 nM. For the same compound, the TGI [8] was over 100000 nM, the GI50 [9] was over 100000 nM and the TGI [9] was over 100000 nM. The GI50 [10] was over 100000 nM, the TGI [10] was over 100000 nM and the GI50 [52] was over 100000 nM. It also gave a TGI [52] of over 100000 nM, a GI50 [11] of over 100000 nM and a TGI [11] of over 100000 nM. The GI50 [12] was over 100000 nM, the TGI [12] was over 100000 nM and the GI50 [13] was over 100000 nM. For the same compound, the TGI [13] was over 100000 nM, the GI50 [14] was over 100000 nM and the TGI [14] was over 100000 nM. For the same compound, the GI50 [15] was over 100000 nM, the TGI [15] was over 100000 nM and the GI50 [16] was over 100000 nM. For the same compound, the TGI [16] was over 100000 nM, the GI50 [17] was over 100000 nM and the TGI [17] was over 100000 nM. It also gave a GI50 [18] of over 100000 nM, a TGI [18] of over 100000 nM and a GI50 [19] of over 100000 nM. It also gave a TGI [19] of over 100000 nM, a GI50 [20] of over 100000 nM and a TGI [20] of over 100000 nM. For the same compound, the GI50 [21] was over 100000 nM, the TGI [21] was over 100000 nM and the GI50 [22] was over 100000 nM. It also gave a TGI [22] of over 100000 nM, a GI50 [23] of over 100000 nM and a TGI [23] of over 100000 nM. For the same compound, the GI50 [24] was over 100000 nM, the TGI [24] was over 100000 nM and the GI50 [25] was over 100000 nM. It also gave a TGI [25] of over 100000 nM, a GI50 [26] of over 100000 nM and a TGI [26] of over 100000 nM. The GI50 [27] was over 100000 nM, the TGI [27] was over 100000 nM and the GI50 [29] was over 100000 nM. It also gave a TGI [29] of over 100000 nM, a GI50 [30] of over 100000 nM and a TGI [30] of over 100000 nM. The GI50 [53] was over 100000 nM, the TGI [53] was over 100000 nM and the GI50 [31] was over 100000 nM. It also gave a TGI [31] of over 100000 nM, a GI50 [32] of over 100000 nM and a TGI [32] of over 100000 nM. The GI50 [33] was over 100000 nM, the TGI [33] was over 100000 nM and the GI50 [34] was over 100000 nM. For the same compound, the TGI [34] was over 100000 nM, the GI50 [54] was over 100000 nM and the TGI [54] was over 100000 nM. The GI50 [35] was over 100000 nM, the TGI [35] was over 100000 nM and the GI50 [36] was over 100000 nM. The TGI [36] was over 100000 nM, the GI50 [37] was 63000 nM and the TGI [37] was over 100000 nM. It also gave a GI50 [38] of over 100000 nM, a TGI [38] of over 100000 nM and a GI50 [55] of over 100000 nM. The TGI [55] was over 100000 nM, the GI50 [39] was over 100000 nM and the TGI [39] was over 100000 nM. For the same compound, the GI50 [40] was over 100000 nM, the TGI [40] was over 100000 nM and the GI50 [41] was over 100000 nM. It also gave a TGI [41] of over 100000 nM, a GI50 [42] of over 100000 nM and a TGI [42] of over 100000 nM. For the same compound, the GI50 [43] was over 100000 nM, the TGI [43] was over 100000 nM and the GI50 [44] was over 100000 nM. The TGI [44] was over 100000 nM, the GI50 [56] was over 100000 nM and the TGI [56] was over 100000 nM. For the same compound, the GI50 [45] was over 100000 nM, the TGI [45] was over 100000 nM and the GI50 [46] was over 100000 nM. It also gave a TGI [46] of over 100000 nM, a GI50 [47] of over 100000 nM and a TGI [47] of over 100000 nM. It also gave a GI50 [48] of over 100000 nM, a TGI [48] of over 100000 nM and a GI50 [49] of over 100000 nM. The TGI [49] was over 100000 nM, the GI50 [50] was over 100000 nM and the TGI [50] was over 100000 nM. It also gave a GI50 [51] of over 100000 nM and a TGI [51] of over 100000 nM.
